# Measured values taken from US20100143507A1, “CARBOXYLIC ACID INHIBITORS OF HISTONE DEACETYLASE, GABA TRANSAMINASE AND SODIUM CHANNEL” (AUSPEX PHARMACEUTICALS, INC., priority 2008, published 2010).
# Assay: In vitro liver microsomal stability assay
# Format: in vitro ADME
# Settings: 1 mg per mL liver microsome protein, NADPH-generating system, 1 μM test compound, 37° C., 0-60 minutes, LC/MS/MS
# Protocol: Liver microsomal stability assays were conducted with 1 mg per mL liver microsome protein with an NADPH-generating system (2.2 mM NADPH, 25.6 mM glucose 6-phosphate, 6 units per mL glucose 6-phosphate dehydrogenase and 3.3 mM magnesium chloride) in 2% sodium bicarbonate. Test compounds were prepared as solutions in 20% acetonitrile-water and added to the assay mixture (final assay concentration 1 μM) and incubated at 37° C. Final concentration of acetonitrile in the assay should be <1%. Aliquots (50 μL) were taken out at times 0, 15, 30, 45, and 60 minutes, and diluted with ice cold acetonitrile (200 μL) to stop the reactions. Samples were centrifuged at 12,000 RPM for 10 minutes to precipitate proteins. Supernatants were transferred to microcentrifuge tubes and stored for LC/MS/MS analysis of the degradation half-life of the test compounds. […] In certain embodiments, the increase in degradation half-life is at least 5%; at least 10%; or at least 15%.
smiles,measurement,value
[2H]C([2H])([2H])C([2H])([2H])C([2H])([2H])C([2H])(C(=O)O)C([2H])([2H])C([2H])([2H])C([2H])([2H])[2H] [valproic acid-d15],degradation half-life as compared to the non-isotopically enriched drug,increased degradation half-life
